In patent US4925855A, “Imidazole derivatives and antimycotics containing them” (CL Pharma Aktiengesellschaft, priority 1986, dated 1990):
In brackets after ≈: the same amount, converted by molar mass. Each block holds one compound with its values, some of them ahead of it.

Columns and labels:
Type in all cases: cell-based
[1] = tested on: Aspergillus fumigatus; assay: MIC in serial dilution test, Aspergillus fumigatus; conditions: 20160 min, pH 6
Description: (§1) The antimycotic activities of the compounds were measured by in vitro determination of the minimum inhibitory concentration (MIC) for yeasts, molds and dermatophytes.
(§2) 6 dermatophytes, 2 yeasts and 4 molds were used for testing with fungi, as follows:
Aspergillus fumigatus (Asp.fu.)
(§3) The minimum inhibitory concentration (MIC) was determined in serial dilution tests in test tubes. The volume of the liquid nutrient medium in each test tube was 4.5 ml.
(§4) The substances were dissolved in DMSO and diluted with sterile distilled water to 10 concentrations (100, 50, 25, 12.5, 6.25, 3.12, 1.56, 0.78, 0.39 and 0.19 μg/ml). 0.5 ml of each of these dilution steps was added to the liquid nutrient medium. Thus, a constant concentration of solvent in all the nutrient media was ensured, irrespective of the active compound concentration.
(§5) A comparison solution which contained only the solvent in appropriate concentration was included when carrying out each of the tests.
(§6) The individual strains were maintained on Sabouraud/beerwort agar slants and, before they were used in a test, they underwent a passage on a modified Sabouraud liquid nutrient medium. The strains were then harvested, washed and converted into a suspension of McFaerland 3 in the case of yeasts and molds and of McFaerland 4-5 in the case of dermatophytes.
(§7) The amount of material inoculated (inoculum) was 100 μl/test tube (inoculated densities: yeasts […] of the liquid nutrient medium was 6.0. After inoculation had taken place the fungi were incubated at 22° C. for 14 days.
(§8) The MIC was then determined. The concentration step at which growth was no longer visible on macroscopic inspection was used for the determination of the MIC. The comparison substance used was 1-(2-(2,4-dichlorophenyl)-2-(2,4-dichlorophenylmethoxy)ethyl)-1H-imidazoleas nitrate (compound A).

[2] = tested on: Candida tropicalis; assay: MIC in serial dilution test, Candida tropicalis; conditions: 336 h, pH 6, Candida tropicalis, pH 6.0, 22° C., 14 days, read-out: MIC values, C. trop
Description: as §1, §2
Candida tropicalis (C.trop.)
as §3, §4, §5, §6, §7, §8

[3] = tested on: Mucor mucedo minus; assay: MIC in serial dilution test, Mucor mucedo minus; conditions: 336 h, pH 6, Mucor mucedo minus, pH 6.0, 22° C., 14 days, read-out: MIC values, Mu. mu-
Description: as §1, §2
Mucor mucedo minus (Mu.mu^-)
as §3, §4, §5, §6, §7, §8

[4] = tested on: Trichophyton verrucosum; assay: MIC in serial dilution test, Trichophyton verrucosum; conditions: 336 h, pH 6, Trichophyton verrucosum, pH 6.0, 22° C., 14 days, read-out: MIC values, Tri. ve.
Description: as §1, §2
Trichophyton verrucosum (Tri.ve.)
as §3, §4, §5, §6, §7, §8

[5] = tested on: Mucor mucedo plus; assay: MIC in serial dilution test, Mucor mucedo plus; conditions: 336 h, pH 6, Mucor mucedo plus, pH 6.0, 22° C., 14 days, read-out: MIC values, Mu. mu+
Description: as §1, §2
Mucor mucedo plus (Mu.mu^+)
as §3, §4, §5, §6, §7, §8

[6] = tested on: Candida albicans; assay: MIC in serial dilution test, Candida albicans; conditions: 336 h, pH 6.0, 22° C., 14 days, read-out: MIC values, C. alb
Description: as §1, §2
Candida albicans (C.alb.)
as §3, §4, §5, §6, §7, §8

[7] = tested on: Microsporum gypseum; assay: MIC in serial dilution test, Microsporum gypseum; conditions: Nannizzia gypsea, 336 h; Microsporum gypseum; pH 6.0, 22° C., 14 days; read-out: MIC values, Mi. gyp
Description: as §1, §2
Microsporum gypseum (Mi.gyp.)
as §3, §4, §5, §6, §7, §8

[8] = tested on: Epidermophyton floccosum; assay: MIC in serial dilution test, Epidermophyton floccosum; conditions: 336 h, pH 6, Epidermophyton floccosum, pH 6.0, 22° C., 14 days, read-out: MIC values, Ep. flo
Description: as §1, §2
Epidermophyton floccosum
as §3, §4, §5, §6, §7, §8

[9] = tested on: Absidia ramosa; assay: MIC in serial dilution test, Absidia ramosa; conditions: Lichtheimia ramosa, 336 h, pH 6, Absidia ramosa; pH 6.0, 22° C., 14 days; read-out: MIC values, Abs. ra.
Description: as §1, §2
Absidia ramosa (Abs.ra.)
as §3, §4, §5, §6, §7, §8

[10] = tested on: Trichophyton rubrum; assay: MIC in serial dilution test, Trichophyton rubrum; conditions: 336 h, pH 6, Trichophyton rubrum, pH 6.0, 22° C., 14 days, read-out: MIC values, Tri. ru.
Description: as §1, §2
Trichophyton rubrum (Tri.ru.)
as §3, §4, §5, §6, §7, §8

[11] = tested on: Microsporum canis; assay: MIC in serial dilution test, Microsporum canis; conditions: 336 h, pH 6, Microsporum canis, pH 6.0, 22° C., 14 days, read-out: MIC values, Mi. can
Description: as §1, §2
Microsporum canis (Mi.can.)
as §3, §4, §5, §6, §7, §8

[12] = tested on: Trichophyton mentagrophytes; assay: MIC in serial dilution test, Trichophyton mentagrophytes; conditions: 336 h, pH 6, Trichophyton mentagrophytes, pH 6.0, 22° C., 14 days, read-out: MIC values, Tri. me.
Description: as §1, §2
Trichophyton mentagrophytes
as §3, §4, §5, §6, §7, §8

MIC values, Asp. fu. [1]: 6,25 μg/ml
Structure (SMILES): Clc1ccc(SCCCNC(Cn2ccnc2)c2ccc(Br)cc2)cc1 (centres unmarked) [compound 11]

MIC values, Asp. fu. [1]: 0,78 μg/ml
Structure (SMILES): Cc1ccc(SCCCNC(Cn2ccnc2)c2ccc(Cl)cc2Cl)cc1 (centres unmarked) [compound 17]

Structure (SMILES): Clc1ccc(SCCCNC(Cn2ccnc2)c2ccc(Cl)cc2Cl)cc1 (centres unmarked) [compound 20, 1-(2-(2,4-Dichlorophenyl)-2-(3-(4-chlorophenylthio)-propylamino)ethyl)-1H-imidazole]
MIC values, Asp. fu. [1]: 3,12 μg/ml

MIC [2]: 25 µg/mL (≈ 66.1 µM)
MIC [3]: 12.5 µg/mL (≈ 33.1 µM)
MIC [4]: 3.12 µg/mL (≈ 8.25 µM)
MIC [5]: 12.5 µg/mL
MIC [6]: 12.5 µg/mL (≈ 33.1 µM)
MIC [7]: 6.25 µg/mL (≈ 16.5 µM)
MIC [8]: 3.12 µg/mL (≈ 8.25 µM)
MIC [9]: 2.5 µg/mL (≈ 6.61 µM)
MIC [10]: 3.12 µg/mL (≈ 8.25 µM)
MIC [11]: 25 µg/mL (≈ 66.1 µM)
MIC values, Asp. fu. [1]: 12,5 μg/ml
MIC [12]: 12.5 µg/mL (≈ 33.1 µM)
Structure (SMILES): Clc1ccc(SCCCNC(Cn2ccnc2)c2cccs2)cc1 (centres unmarked) [compound 31]

MIC [3]: 12.5 µg/mL (≈ 28.3 µM)
Structure (SMILES): Clc1ccc(C(Cn2ccnc2)NCCSc2ccc3ccccc3c2)c(Cl)c1 (centres unmarked) [compound 6]

MIC values, Asp. fu. [1]: 6,25 μg/ml
Structure (SMILES): Clc1ccc(SCCCCCNC(Cn2ccnc2)c2ccc(Cl)cc2Cl)cc1 (centres unmarked) [compound 38]

MIC values, Asp. fu. [1]: 0,78 μg/ml
Structure (SMILES): Clc1ccc(C(Cn2ccnc2)NCCCSc2ccc3ccccc3c2)c(Cl)c1 (centres unmarked) [compound 27]

MIC values, Asp. fu. [1]: 3,12 μg/ml
Structure (SMILES): Clc1ccc(C(Cn2ccnc2)NCCCSc2ccccc2)c(Cl)c1 (centres unmarked) [compound 16]

MIC values, Asp. fu. [1]: 25,0 μg/ml
Structure (SMILES): CN(CCCSCc1ccc(Cl)cc1)C(Cn1ccnc1)c1ccc(Cl)cc1Cl (centres unmarked) [compound 36, 1-(2-(2,4-Dichlorophenyl)-2-(N-methyl-3-(4-chlorobenzylthio)propylamino)ethyl)-1H-imidazole]

MIC [2]: 1.56 µg/mL (≈ 3.21 µM)
MIC [11]: 1.56 µg/mL (≈ 3.21 µM)
MIC values, Asp. fu. [1]: 1,56 μg/ml
Structure (SMILES): Clc1ccc(C(Cn2ccnc2)NCCCSc2ccc(Br)cc2)c(Cl)c1 (centres unmarked) [compound 23, 1-(2-(2,4-dichlorophenyl)-2-(3-(4-bromophenylthio)propylamino)ethyl)-1H-imidazole]
